Test results published in patent US20240043473A1, “NOOTROPIC PEPTIDES FOR TREATING LYSOSOMAL STORAGE DISEASES” (Phoenix Nest Inc., priority 2021, published 2024).
“Also recorded” adds a separate entry of the source. No end group written: not given here.

Tests used:
[1] = system: Hgsnat^P304L MPS IIIC mice; assay: Open Field test; format: in vivo, mouse; settings: for Open Field behaviour in WT mice vs saline: chronic daily treatment
Procedure: Method: Open field test that explores behaviour of animals in open area. Rodents normally avoid the center of the arena (anxiety reflex) and spend certain time immobile (freezing reflex). […]
The open-field test was performed as previously described. Briefly, mice were habituated in the experimental room for 45 mins before the commencement of the test. Each mouse was then gently placed in the center of the open-field arena and allowed to explore for 20 min. The mouse was removed and transferred to its home cage after the test, and the arena was cleaned with 70% ethanol before the commencement of the next test. Analysis of the behavioral activity was done using the Smart video tracking software (v3.0, Panlab Harvard Apparatus), and total distance traveled and percent of time spent in the center zone were measured for hyperactivity and anxiety assessment, respectively.
(§1) Starting from 3 weeks of age, WT C57B16 and homozygous Hgsnat^P304L male and female mice were randomly divided in treatment and control groups (6-13 mice/sex/genotype/treatment; see Table I). The control group was daily administered with saline (5 μL to each nostril), while for the treatment group, saline was supplemented with 125 µg of AVP6/mL, which would result in a dose of approximately 50 μg/kg BW/day. The peptide formulation was prepared once, aliquoted and kept frozen at −80° C. until use. At 4 months, all mice were studied by EPM, OF, YM and NOR behavioral tests. Administration of the drug or saline was continued through the days on which the assays were conducted. Then approximately at 5 months 4-5 mice in each group were sacrificed. Their blood plasma was collected, and their tissues were either snap-frozen or fixed and cryopreserved to analyze CNS pathology as described above. For the remaining mice, treatment was continued and their behaviour was studied again at the age of 6 months using OF. NOR and YM tests. Starting from the age of 8 months, Hgsnat^P304L treated and untreated mice were daily studied for the signs of urinary retention. When such signs were detected, the mice were studied by ERG and sacrificed within 1-2 days. Finally, the remaining treated and untreated WT mice were studied by ERG and sacrificed at the end of the study, approximately at 10 months of age.
We further tested if AVP6 can rescue neurobehavioral deficits associated with synaptic dysfunction in MPS IIIC mice. The early phase of the disease in both Hgsnat-Geo and Hgsnat^P304L mice manifests with reduced anxiety and hyperactivity. Specifically, in an Open Field (OF) test at both 4 months and 6 months, Hgsnat^P304L mice show a significant increase in a total distance traveled, increased time spent at the center of the arena and increased distance traveled in the center of the arena as compared with the WT animals. […] […] Control groups were treated with the same volume of saline.

[2] = system: somatosensory cortex and hippocampus of Hgsnat^P304L mice; assay: Brain immunohistochemistry after chronic treatment (synaptic markers, astrocytosis, microgliosis, lysosomal puncta); format: in vivo, mouse
Procedure: Mouse brains were collected from animals perfused with 4% PFA in PBS and post-fixed in 4% PFA in PBS overnight. Brains were cryopreserved in 30% sucrose for 2 days at 4° C., embedded in Tissue-Tek® OCT Compound and stored at −80° C. Brains were cut in 40 μm-thick sections and stored in cryopreservation buffer (0.05 M sodium phosphate buffer pH 7.4, 15% sucrose, 40% ethylene glycol) at −20° C. pending immunohistochemistry. Mouse brain sections were washed 3 times with PBS and permeabilized/blocked by incubating in 5% bovine serum albumin (BSA), 0.3% Triton X-100 in PBS for 1 h at room temperature. Incubation with primary antibodies, diluted in 1% BSA, 0.3% Triton X-100 in PBS, was performed overnight at 4° C.
The mouse brain sections were washed 3 times with PBS and counterstained with Alexa Fluor-labeled secondary antibodies (dilution 1:400) for 2 h at room temperature. After washing 3 times with PBS, the mouse brain sections were treated with TrueBlack® Lipofuscin Autofluorescence Quencher (Biotium, 23007, dilution 1:10) for 1 min, and then again washed 3 times with PBS. The slides were mounted with Prolong Gold Antifade mounting reagent with DAPI (Invitrogen, P36935) and analyzed using Leica DM 5500 Q upright confocal microscope (10×, 40×, and 63× oil objective, N.A. 1.4). Images were processed and quantified using ImageJ 1.50i software (National Institutes of Health. Bethesda, MD, USA) in a blinded fashion. Panels were assembled with Adobe Photoshop.
as §1
After completion of the behavioural analysis at 4 months, 50% of mice in each group were sacrificed for analysis of CNS pathology and biochemical testing. To study the effect of the treatment on synaptic architecture, we have stained the brain sections for presynaptic (VGLUT1) and postsynaptic (PSD-95, BDNF) markers and quantified their levels in the CA1 area of hippocampi and in layers 3-4 of somatosensory cortex.
The terminal CNS pathology was studied using the same set of biomarkers as at 4 months, either by IHC (astrocytosis, microgliosis, synaptic markers SYN1, PSD-95, […], BDNF) or by biochemical (total β-hexosaminidase activity, expression levels of inflammatory cytokines) assays.

[3] = system: Hgsnat^P304L and Hgsnat-Geo MPS IIIC mice; assay: Elevated Plus Maze test; format: in vivo, mouse
Procedure: Method: Elevated plus maze that measures a natural fear of heights reflex of animals. AVP6 was administered intranasally at 50 μg/kg (5 μl/nostril) to the animals 17 h before the experiment.
The elevated plus-maze test was performed as follows. Each mouse was placed in the center of the elevated plus maze and allowed to freely explore undisturbed for 10 min. After each testing, the mouse was returned to the home cage and the arena was cleaned with 70% ethanol before the commencement of the next test. Analysis of the behavioral activity (percentage of time spent in the center zone, closed arms, and open arms; as well as the number of open arm entries) was done by the Smart v3.0 software.
as §1

[4] = Effect on memory and learning after intranasal administration (earlier work); format: in vivo; settings: 50 μg/kg BW intranasal; mice and rats
[5] = chronic daily intranasal 50 μg/kg BW from 3 weeks, Hgsnat^P304L male and female mice at 4 months
[6] = chronic daily intranasal 50 μg/kg BW from 3 weeks, Hgsnat^P304L mice at 6 months
[7] = single intranasal 50 μg/kg 17 h before test, Hgsnat^P311L (P304L) mice, 4 and 6 months
[8] = chronic daily 50 μg/kg BW from 3 weeks, Hgsnat^P304L mice at sacrifice (10-11 months)

With “AVP6: N-terminally acetylated Semax, a nootropic peptide having the amino acid sequence of MEHFPGP (SEQ ID NO:1) (Ac-MEHFPGP)” the “hyperactivity (total distance traveled), Open Field” value (from here on “hyperactivity”) [1, 5] was “showed absence of these phenotypes; also recorded: show the rescue of all above deficits”, the “reduced anxiety (time spent in the center), Open Field” value [1, 5] was “showed absence of these phenotypes; also recorded: show the rescue of all above deficits” and the “hyperactivity” value [1, 6] was “significantly reduced; also recorded: show rescue of all above deficits”. The “reduced anxiety (time spent in the center), Open Field” value [1, 6] was “significantly reduced; also recorded: show rescue of all above deficits”, the “Open Field behaviour in WT mice vs saline” value ([1]; WT mice at 4 months) was “no difference was observed” and the “Open Field behaviour in WT mice vs saline” value ([1]; WT mice at 6 months) was “No difference in behaviour was observed”. For the same substance, the “hyperactivity” value [1, 7] was “rescues hyperactivity; also recorded: the total traveled distance was reduced; also recorded: Both parameters are normalized”, the “reduced anxiety (time spent / distance traveled in the center), Open Field” value [1, 7] was “rescues hyperactivity and reduced anxiety; also recorded: time spend in the center increased; also recorded: Both parameters are normalized” and the “levels of synaptic markers VGLUT1, PSD-95 and BDNF in CA1 hippocampus and somatosensory cortex” value ([2]; chronic daily 50 μg/kg BW from 3 weeks, Hgsnat^P304L mice at 5 months) was “are rescued”. The “GFAP+ astrocytes and CD68+ activated microglia in cortex and hippocampus” value ([2]; chronic daily 50 μg/kg BW from 3 weeks, Hgsnat^P304L mice at 5 months, vs saline) was “normalizes astrocytosis and microgliosis; also recorded: are reduced”, the “levels of post-synaptic proteins PSD-95 and BDNF” value [2, 8] was “completely recovered; also recorded: are rescued in hippocampus and partially rescued in the somatosensory cortex” and the “levels of presynaptic proteins GLUT1 (VGLUT1) and SYN1” value [2, 8] was “either increased in the AVP6-treated as compared with saline-treated Hgsnat^P304L mice, or remained significantly lower than those in WT animals; also recorded: are rescued in hippocampus and partially rescued in the somatosensory cortex”. For the same substance, the “levels and sizes of LAMP2+/HS+ or GM2-ganglioside+ lysosomal puncta in cortical/hippocampal neurons” value ([2]; chronic daily 50 μg/kg BW, Hgsnat^P304L mice at 5 months, vs saline) was “remained similar”, the “markers of astrocytosis and microgliosis, GFAP and CD68” value ([2]; chronic daily 50 μg/kg BW, Hgsnat^P304L mice at 10-11 months, vs saline, cortex levels remained above WT) was “significantly reduced; also recorded: reduces it; also recorded: reduces levels of activated GFAP+ astrocytes in the cortex (D) and CD68+ microglia in both cortex and hippocampus” and the “LAMP2 levels in brain sections compared with WT” value ([2]; chronic daily 50 μg/kg BW, Hgsnat^P304L mice at terminal timepoint) was “remained significantly increased”. The “reduced fear (open arm entries, time in open arms), Elevated Plus Maze” value ([3]; chronic daily intranasal 50 μg/kg BW from 3 weeks, Hgsnat^P304L mice at 4 months) was “showed no difference from their WT counterparts; also recorded: show the rescue of all above deficits”, the “Elevated Plus Maze parameters in WT mice” value ([3]; chronic daily treatment, WT mice at 4 months) was “no effect of the drug was detected in the WT mice” and the “reduced fear/anxiety, Elevated Plus Maze” value ([3]; single intranasal 50 μg/kg 17 h before test, Hgsnat-Geo mice, 6 months) was “showed a behavior similar to their WT counterparts; also recorded: also rescues reduced anxiety in EPM test”. For the same substance, the “reduced fear (time spent in open arms, number of open arm entries), Elevated Plus Maze” value ([3]; single intranasal 50 μg/kg 17 h before test, Hgsnat^P311L (P304L) mice, 4 months) was “rescues reduced fear; also recorded: showed a behavior similar to their WT counterparts; also recorded: Both parameters are normalized” and the “time to maximal effect on memory and learning after intranasal administration” value [4] was at most 24 h.
